Test results published in ChEMBL document CHEMBL5247656, “Discovery of a Potent, Cooperative, and Selective SOS1 PROTAC ZZ151 with In Vivo Antitumor Efficacy in KRAS-Mutant Cancers” (J Med Chem, 2023).
The source made the active and inactive calls. The calls are words filed in the database; no cut-off is given here.

Key:
[1] = molecular target: T1, von Hippel-Lindau disease tumor suppressor/Son of sevenless homolog 1 (Homo sapiens) (UniProt Q07889+P40337); assay: PROTAC activity at VHL/SOS1 in human NCI-H441 cells harboring KRAS G12V mutant assessed as induction of SOS1 degradation by measuring maximal efficacy at 1 to 2000 nM incubated for 24 hrs by Immunoblot analysis relative to control; assay type: cell-based; conditions: dose 1-2000 nM
T1 sequence (P40337 whole entry, looked up, one chain of several): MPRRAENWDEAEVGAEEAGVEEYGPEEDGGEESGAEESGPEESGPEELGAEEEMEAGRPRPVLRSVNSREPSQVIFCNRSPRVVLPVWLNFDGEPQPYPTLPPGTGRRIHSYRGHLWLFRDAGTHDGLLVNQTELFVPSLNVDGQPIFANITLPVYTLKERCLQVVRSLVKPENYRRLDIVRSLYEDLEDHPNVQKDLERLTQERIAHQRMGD

[2] = molecular target: T1, von Hippel-Lindau disease tumor suppressor/Son of sevenless homolog 1 (Homo sapiens); assay: PROTAC activity at VHL/SOS1 in human UMUC3 cells harboring KRAS G12C mutant assessed as induction of SOS1 degradation by measuring maximal efficacy at 1 to 2000 nM incubated for 24 hrs by Immunoblot analysis relative to control; assay type: cell-based; conditions: dose 1-2000 nM
[3] = molecular target: T1, von Hippel-Lindau disease tumor suppressor/Son of sevenless homolog 1 (Homo sapiens); assay: In vivo PROTAC activity at VHL/SOS1 in human ASPC1 cells harboring KRAS G12D mutant xenografted BALB/c nude mouse assessed as decrease in phosphorylated ERK expression at 10 to 20 mg/kg, ip administered once daily for 3 weeks by immunohistochemistry analysis; assay type: functional, organism-based; conditions: dose 10-20 mg/kg
[4] = test system: ASPC1; assay: Antitumor activity against human ASPC1 cells harboring KRAS G12D mutant xenografted in BALB/c nude mouse assessed as tumor growth inhibition at 10 mg/kg, ip administered once daily for 3 weeks relative to control; assay type: functional; conditions: ASPC1, 504 h, read-out: TGI
[5] = molecular target: T1, von Hippel-Lindau disease tumor suppressor/Son of sevenless homolog 1 (Homo sapiens); assay: PROTAC activity at VHL/SOS1 in human A549 cells harboring KRAS G12S mutant assessed as induction of SOS1 degradation by measuring maximal efficacy at 1 to 2000 nM incubated for 24 hrs by Immunoblot analysis relative to control; assay type: cell-based; conditions: dose 1-2000 nM
[6] = molecular target: T1, von Hippel-Lindau disease tumor suppressor/Son of sevenless homolog 1 (Homo sapiens); assay: PROTAC activity at VHL/SOS1 in human ASPC1 cells harboring KRAS G12D mutant assessed as induction of SOS1 degradation at 1 uM preincubated with VHL ligand for 4 hrs followed by compound treatment and measured after 24 hrs by immunoblot analysis; assay type: cell-based
[7] = molecular target: T1, von Hippel-Lindau disease tumor suppressor/Son of sevenless homolog 1 (Homo sapiens); assay: PROTAC activity at VHL/SOS1 in human Calu-1 cells harboring KRAS G12C mutant assessed as induction of SOS1 degradation by measuring maximal efficacy at 1 to 2000 nM incubated for 24 hrs by Immunoblot analysis relative to control; assay type: cell-based; conditions: dose 1-2000 nM
[8] = test system: A549; assay: Antiproliferative activity against human A549 cells harboring KRAS G12S mutant assessed as inhibition of cell proliferation incubated for 7 days by CellTiterGlo-3D proliferation assay; assay type: functional, cell-based; conditions: A549, 168 h
[9] = molecular target: T1, von Hippel-Lindau disease tumor suppressor/Son of sevenless homolog 1 (Homo sapiens); assay: PROTAC activity at VHL/SOS1 in human NCI-H460 cells harboring KRAS Q61H mutant assessed as induction of SOS1 degradation by measuring maximal efficacy at 1 to 2000 nM incubated for 24 hrs by Immunoblot analysis relative to control; assay type: cell-based; conditions: dose 1-2000 nM
[10] = molecular target: T1, von Hippel-Lindau disease tumor suppressor/Son of sevenless homolog 1 (Homo sapiens); assay: In vivo PROTAC activity at VHL/SOS1 in human ASPC1 cells harboring KRAS G12D mutant xenografted BALB/c nude mouse assessed as induction of SOS1 degradation administered intraperitoneally once daily for 3 weeks by Immunoblot analysis; assay type: functional; conditions: dose 10-20 mg/kg, route ip
[11] = molecular target: T1, von Hippel-Lindau disease tumor suppressor/Son of sevenless homolog 1 (Homo sapiens); assay: PROTAC activity at VHL/SOS1 in human SNU-C2B cells harboring KRAS G12D mutant assessed as induction of SOS1 degradation by measuring maximal efficacy at 1 to 2000 nM incubated for 24 hrs by Immunoblot analysis relative to control; assay type: cell-based; conditions: dose 1-2000 nM
[12] = molecular target: von Hippel-Lindau disease tumor suppressor/Son of sevenless homolog 1 (Homo sapiens, UniProt P40337+Q07889); assay: PROTAC activity at VHL/SOS1 in human NCI-H358 cells assessed as induction of SOS1 protein degradation incubated for 24 hrs by Immunoblot analysis; assay type: cell-based
von Hippel-Lindau disease tumor suppressor/Son of sevenless homolog 1, sequence (P40337 whole entry, one chain of several): as the sequence (P40337 whole entry, looked up, one chain of several) above

[13] = molecular target: T1, von Hippel-Lindau disease tumor suppressor/Son of sevenless homolog 1 (Homo sapiens); assay: PROTAC activity at VHL/SOS1 in human ASPC1 cells harboring KRAS G12D mutant assessed as induction of SOS1 degradation at 1 uM preincubated with MG132 for 4 hrs followed by compound treatment and measured after 24 hrs by immunoblot analysis; assay type: cell-based
[14] = molecular target: T2, Son of sevenless homolog 1 (Homo sapiens) (UniProt Q07889); assay: Induction of SOS1 degradation in human ASPC1 cells at 1 uM incubated for 6 hrs by quantitative proteomics analysis; assay type: cell-based
T2 sequence (whole entry): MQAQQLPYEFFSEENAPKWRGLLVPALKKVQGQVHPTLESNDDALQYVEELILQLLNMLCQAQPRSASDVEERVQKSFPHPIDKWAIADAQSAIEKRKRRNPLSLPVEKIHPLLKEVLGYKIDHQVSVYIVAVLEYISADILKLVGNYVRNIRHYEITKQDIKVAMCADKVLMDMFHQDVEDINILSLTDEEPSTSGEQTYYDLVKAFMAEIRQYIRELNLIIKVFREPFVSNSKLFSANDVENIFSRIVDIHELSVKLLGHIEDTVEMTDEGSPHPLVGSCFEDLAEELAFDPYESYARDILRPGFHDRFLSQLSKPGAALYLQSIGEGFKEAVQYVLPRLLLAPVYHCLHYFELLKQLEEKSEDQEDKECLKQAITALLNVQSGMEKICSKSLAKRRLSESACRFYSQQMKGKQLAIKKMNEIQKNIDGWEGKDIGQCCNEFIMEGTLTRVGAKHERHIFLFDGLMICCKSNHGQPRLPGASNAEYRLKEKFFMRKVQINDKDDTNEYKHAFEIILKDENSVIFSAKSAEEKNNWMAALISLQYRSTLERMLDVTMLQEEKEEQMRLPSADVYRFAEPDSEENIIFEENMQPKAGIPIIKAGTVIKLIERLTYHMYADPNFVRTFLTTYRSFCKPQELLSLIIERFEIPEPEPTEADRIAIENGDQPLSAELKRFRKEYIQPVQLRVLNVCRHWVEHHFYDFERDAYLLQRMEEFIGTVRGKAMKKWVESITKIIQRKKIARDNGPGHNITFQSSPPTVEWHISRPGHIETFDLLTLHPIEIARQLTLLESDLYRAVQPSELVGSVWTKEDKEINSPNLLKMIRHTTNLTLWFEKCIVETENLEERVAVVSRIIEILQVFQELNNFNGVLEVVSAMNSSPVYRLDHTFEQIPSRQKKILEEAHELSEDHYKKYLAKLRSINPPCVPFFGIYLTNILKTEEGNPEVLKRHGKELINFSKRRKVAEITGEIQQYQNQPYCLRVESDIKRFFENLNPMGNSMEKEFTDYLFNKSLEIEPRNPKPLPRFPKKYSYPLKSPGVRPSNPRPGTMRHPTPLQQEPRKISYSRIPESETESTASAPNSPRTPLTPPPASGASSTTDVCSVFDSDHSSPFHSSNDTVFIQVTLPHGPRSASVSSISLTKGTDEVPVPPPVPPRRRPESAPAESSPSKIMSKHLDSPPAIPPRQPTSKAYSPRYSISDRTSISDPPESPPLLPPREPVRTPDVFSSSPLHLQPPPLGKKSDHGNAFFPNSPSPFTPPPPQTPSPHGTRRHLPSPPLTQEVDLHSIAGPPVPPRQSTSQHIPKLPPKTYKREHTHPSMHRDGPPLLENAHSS

[15] = test system: SW-620; assay: Antitumor activity against human SW620 cells harboring KRAS G12V mutant xenografted in BALB/c nude mouse assessed as tumor growth inhibition at 20 mg/kg, ip administered once daily for 2 weeks relative to control; assay type: functional; conditions: SW-620, 336 h, read-out: TGI

COc1cc2nc(C)nc(N[C@H](C)c3cc(N)cc(C(F)(F)F)c3)c2cc1C1CCN(C(=O)CCCCCC(=O)N[C@H](C(=O)N2C[C@H](O)C[C@H]2C(=O)N[C@@H](C)c2ccc(-c3scnc3C)cc2)C(C)(C)C)CC1
Emax [1]: > 95% | Emax [2]: > 95% | Activity [3]: Active | inhibition in vivo at 10 mg/kg [4]: 38.8% | Emax [5]: > 95% | Activity [6]: inactive | Emax [7]: > 95% | IC50 [8]: 105 nM | Emax [9]: > 95% | Activity [10]: Dose-Dependent Effect | Emax [11]: > 95% | EC50 [12]: 15.7 nM | Activity [13]: inactive | Activity [14]: Active | inhibition in vivo at 20 mg/kg [15]: 65.4%
